Experimental findings from patent publication US8436011B2, “Pyridinopyridinone derivatives, preparation thereof and therapeutic use thereof” (Sanofi, priority 2008, dated 2013) are described below.

Where two headings read alike, the source gives them in different places.

What is called inhibition is the drop in the measured response relative to a control, in per cent. As usually defined, the melting point is the temperature, or range, at which the solid turns liquid.

For data set [1], the target named is T1, fusion protein Tel/PDGF-R (PDGF-Rβ kinase domain) in HEK cells (Homo sapiens, UniProt P09619).
T1 construct: the transmembrane and intracellular part of the PDGF-Rβ receptor; N-terminal part of the Tel transcription factor (ETV6); expressed in transfected cells; host or cells: HEK cells (transient transfection); the other entry of the earlier key: ETV6 (P41212, Transcription factor ETV6)
T1 sequence (P09619 with tags, fused parts or gaps): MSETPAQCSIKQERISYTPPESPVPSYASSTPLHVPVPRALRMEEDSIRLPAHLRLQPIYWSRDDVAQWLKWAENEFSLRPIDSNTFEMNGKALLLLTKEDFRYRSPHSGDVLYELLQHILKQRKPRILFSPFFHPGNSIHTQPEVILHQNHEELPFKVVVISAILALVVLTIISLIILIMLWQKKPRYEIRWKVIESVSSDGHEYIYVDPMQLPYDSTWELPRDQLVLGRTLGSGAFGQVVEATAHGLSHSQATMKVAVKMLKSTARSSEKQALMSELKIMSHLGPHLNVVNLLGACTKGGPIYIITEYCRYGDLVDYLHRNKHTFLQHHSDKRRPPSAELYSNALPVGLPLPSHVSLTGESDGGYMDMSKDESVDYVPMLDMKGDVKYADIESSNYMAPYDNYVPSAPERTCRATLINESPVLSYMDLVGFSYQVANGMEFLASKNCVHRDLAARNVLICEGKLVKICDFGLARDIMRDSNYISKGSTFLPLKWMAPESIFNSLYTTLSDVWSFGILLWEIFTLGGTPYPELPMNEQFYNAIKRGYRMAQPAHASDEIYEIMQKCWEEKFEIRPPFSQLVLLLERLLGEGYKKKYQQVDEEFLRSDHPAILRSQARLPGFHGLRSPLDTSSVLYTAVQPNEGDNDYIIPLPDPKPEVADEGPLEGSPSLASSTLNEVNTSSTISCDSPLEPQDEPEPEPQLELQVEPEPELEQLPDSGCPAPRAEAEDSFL
Nature of the data set: Ex vivo activity: plasma of orally treated mice tested on PDGF-R autophosphorylation in HEK Tel/PDGF-R cells (ELISA). More on the design: species or system female Balb/c mice. As to conditions: HEK293, mouse, po, 30 mg/kg po, read-out: % inhibition of autophosphorylation of PDGFR tyrosine kinase in HEK cells. As to the method: Ex vivo activity of the compounds of the invention was measured. These compounds are thus administered orally to female Balb/c mice at a dose of 10, 30 or 100 mg/kg in suspension or in solution in a vehicle such as methylcellulose/Tween and the inhibition of the tyrosine kinase activity is measured in vitro in a cell test, using plasma collected at 15 minutes, 1 hour and 4 hours.
1) Protocol for Administration of the Products to the Mice
The products are prepared in a mortar with 0.5% Tween 80 and 0.6% methylcellulose qs final volume. Depending on the case, preparations of different vehicles may be used: water, mixture of labrasol solutol 5% glucose-water. The suspended or dissolved products are administered by gavage (10 ml/kg) to female Balb/c mice 8 to 15 weeks old.
The animals are then collected at the time given by the protocol (15 min, 1 hour, 4 hours, 16 hours).
The animals are anaesthetized by intraperitoneal injection (10 ml/kg) of a ketamine (0.1 g/kg)-xylazine (20 mg/kg) mixture. […] The blood sample is collected from the vein or the artery using a dry syringe and needle. The blood is immediately transferred into heparin lithium tubes (BD microtainer). Centrifugation for 3 minutes at 12 000 rpm allows recovery of the plasma, on which the biochemical test may be performed after storage by freezing at −20° C.
2) Preparation of the HEK Tel/PDGF-R Cells and Measurement of the Phosphorylation of PDGF-R
In order to detect the ex vivo activity of the products using the mouse plasmas, the HEK cells are transiently transfected beforehand with an expression vector coding for the fusion protein Tel/PDGF-R (fusion protein described previously). After 24 hours of transfection, the cells are deprived of serum overnight and then incubated for 30 minutes with the animal plasmas treated with the products of the invention. The cells are then lysed in RIPA buffer, and detection of the phosphorylation of PDGF-Rβ is then performed via the ELISA technique, using a commercial kit (R&D Systems, DYC1767). The results are expressed as a percentage of inhibition of the autophosphorylation.
In this test of measurement of the ex vivo activity, the effect of the compounds of the invention is quantified by the percentage of inhibition of phosphorylation of the kinase domain of the PDGF-Rβ receptor in HEK cells, induced by the inhibitory activity of the product present in the plasma of the treated animals, as described in the following table: […]
(In general: In an ELISA, binding on a coated surface is turned into a signal by an enzyme label.)

Data set [2] concerns the target T2, fusion protein Tel/PDGF-Rβ (BaF3 Tel/PDGF cells) (Homo sapiens, UniProt P09619).
T2 construct: the transmembrane and intracellular part of the PDGF-Rβ receptor; N-terminal part of the Tel transcription factor (ETV6); expressed in transfected cells; host or cells: murine haematopoietic cell line BaF/3; the other entry of the earlier key: ETV6 (P41212, Transcription factor ETV6)
As to the kind of experiment: Inhibition of PDGF-Rβ tyrosine kinase activity: proliferation of BaF3 Tel/PDGF cells (CellTiter-Glo, 72 h). The data set is classed as cell-based, murine. As to conditions: 72 hours incubation, read-out: IC50 (concentration that inhibits 50% of the proliferation of the BaF3 Tel/PDGF cells). As to the method: Measurement of Inhibition of the Tyrosine Kinase Activity of the PDGF Beta (PDGF-Rβ) (Baf-3 tel/PDGFIRβ) Receptor:
This test consists in evaluating the effects of the compounds on the tyrosine kinase activity of the PDGF beta receptor.
The inhibitory effect of the compounds according to the invention towards the tyrosine kinase activity of the PDGF-R receptor was evaluated on the murine haematopoietic cell line BaF/3 transfected with a plasmid coding for the fusion protein Tel/PDGF-Rβ. This fusion protein is found in chronic myelomonocytic myeloid leukaemias (CMML). It comprises the N-terminal part of the Tel transcription factor and the transmembrane and intracellular part of the PDGF-Rβ receptor. This fusion protein is present in dimerized form (presence of an oligomerization domain in the N-terminal part of Tel) and, as a result, leads to constitutive activity of the kinase domain of PDGF-Rβ. This line BaF3 Tel/PDGF has been described in the literature several times and especially, in detailed manner, in the article by M. Carroll et al., PNAS, 1996, 93, 14845-14850.
The BaF3 Tel/PDGF cells are washed with phosphate buffer and inoculated in 96-well plates, at a density of 5×10^4 cells/ml ([…]), in RPMI 1640 containing 10% FCS, in the presence or absence of the test compounds. After incubation for 72 hours, the viable cells are quantified by measuring the cellular ATP by means of the CellTiter-Glo® kit (Promega, Cat G7571). The cells are treated according to the instructions given by the kit manufacturer, and the luminescence is measured using a Luminoskan (Ascent, Labsystem) with the following parameters: measurement: single; integration time: 1000 ms, lag time: 5 s.
It is thus seen that the compounds according to the invention have inhibitory activity on the tyrosine kinase activity of PDGF-Rβ. This activity is given by the concentration that inhibits 50% of the proliferation of the BaF3 Tel/PDGF cells (IC50).
(In ATP-based viability assays light output follows the ATP content of the culture.)

T2 sequence (P09619 with tags, fused parts or gaps): as above

As to `CCn1c(N)c(C(=O)NC)c(=O)c2ccc(-c3ccc(CC(=O)NCCN4CCOCC4)cc3)nc21` [compound 18, 2-amino-1-ethyl-N-methyl-7-(4-{2-[(2-morpholin-4-ylethyl)amino]-2-oxoethyl}phenyl)-4-oxo-1,4-dihydro-1,8-naphthyridine-3-carboxamide], the inhibition at 30 mg/kg in data set [1] (plasma collected at 15 min) stood at 55%; in data set [1] (plasma collected at 1 h) it was 62%; in data set [1] (plasma collected at 4 h) it was 17%.
The matching figures for `CCN1C[C@H](F)C[C@H]1CNC(=O)Cc1ccc(-c2ccc3c(=O)c(C(=O)NC)c(N)n(CC)c3n2)cc1` [compound 26, 2-amino-1-ethyl-7-{4-[2-({[(2S,4R)-1-ethyl-4-fluoropyrrolidin-2-yl]methyl}-amino)-2-oxoethyl]phenyl}-N-methyl-4-oxo-1,4-dihydro-1,8-naphthyridine-3-carboxamide]: 58%, 67% and 20%.
In the case of `CCn1c(N)c(C(=O)NC)c(=O)c2ccc(-c3ccc(CC(=O)NC[C@H]4CCCN4CCF)cn3)nc21` [compound 29, 2-amino-1-ethyl-7-{5-[2-({[(2R)-1-(2-fluoroethyl)pyrrolidin-2-yl]methyl}-amino)-2-oxoethyl]pyrid-2-yl}-N-methyl-4-oxo-1,4-dihydro-1,8-naphthyridine-3-carboxamide], the IC50 in data set [2] is 35 nM.
`CCn1c(N)c(C(=O)NC)c(=O)c2ccc(-c3ccc(CC(=O)NC[C@H]4CCCN4CC(F)F)cc3)nc21` [compound 31, 2-amino-7-{4-[2-({[(2R)-1-(2,2-difluoroethyl)pyrrolidin-2-yl]methyl}amino)-2-oxoethyl]phenyl}-1-ethyl-N-methyl-4-oxo-1,4-dihydro-1,8-naphthyridine-3-carboxamide]: the inhibition at 30 mg/kg in data set [1] (plasma collected at 15 min) turned out to be 85%; in data set [1] (plasma collected at 1 h), 68%; in data set [1] (plasma collected at 4 h) it was 42%.
Take `CCn1c(N)c(C(=O)NC)c(=O)c2ccc(-c3ccc(CC(=O)NC[C@H]4CCCN4CC(F)F)cn3)nc21` [compound 34, 2-amino-7-{5-[2-({[(2R)-1-(2,2-difluoroethyl)pyrrolidin-2-yl]methyl}amino)-2-oxoethyl]pyrid-2-yl}-1-ethyl-N-methyl-4-oxo-1,4-dihydro-1,8-naphthyridine-3-carboxamide]: the inhibition at 30 mg/kg in data set [1] (plasma collected at 15 min) worked out at 73%; in data set [1] (plasma collected at 1 h), 64%; in data set [1] (plasma collected at 4 h) it was 58%.
Regarding `CCn1c(N)c(C(=O)NC)c(=O)c2ccc(-c3ccc(CC(=O)NCCCc4ccccc4)cc3)nc21` [compound 41, 2-amino-1-ethyl-N-methyl-4-oxo-7-(4-{2-oxo-2-[(3-phenylpropyl)amino]-ethyl}phenyl)-1,4-dihydro-1,8-naphthyridine-3-carboxamide], the melting point was 278 °C. In addition, the IC50 in data set [2] stood at 5.5 nM.
`CCN1CCCC1CNC(=O)CCCc1ccc(-c2ccc3c(=O)c(C(=O)NC)c(N)n(CC)c3n2)cc1` (stereo not drawn) [compound 47, 2-amino-1-ethyl-7-[4-(4-{[(1-ethylpyrrolidin-2-yl)methyl]amino}-4-oxobutyl)phenyl]-N-methyl-4-oxo-1,4-dihydro-1,8-naphthyridine-3-carboxamide]: the melting point is 230 °C. Also, the IC50 in data set [2] stood at 48 nM.
Consider `CCCNC(=O)c1c(N)n(CC)c2nc(-c3ccc(CC(=O)NCC4CCCN4CC)cc3)ccc2c1=O` (stereo not drawn) [compound 48, 2-amino-1-ethyl-7-[4-(2-{[(1-ethylpyrrolidin-2-yl)methyl]amino}-2-oxoethyl)phenyl]-4-oxo-N-propyl-1,4-dihydro-1,8-naphthyridine-3-carboxamide], for which the melting point is 264 °C. The IC50 in data set [2] came to 162 nM.
For `CCN1CCCC1CNC(=O)Cc1ccc(-c2ccc3c(=O)c(C(=O)NC)c(N)n(CC)c3n2)cc1C` (stereo not drawn) [compound 59, 2-amino-7-[3-methyl-4-(2-{[(1-ethylpyrrolidin-2-yl)methyl]amino}-2-oxoethyl)phenyl]-1-ethyl-N-methyl-4-oxo-1,4-dihydro-1,8-naphthyridine-3-carboxamide], the melting point was 277 °C.
Same read-out and setting: the result for `CCN1CCCC1CNC(=O)Cc1ccc(-c2ccc3c(=O)c(C(=O)NC)c(N)n(CC)c3n2)c(C)c1` (stereo not drawn) [compound 61, 2-amino-1-ethyl-7-[4-(2-{[(1-ethylpyrrolidin-2-yl)methyl]amino}-2-oxoethyl)-2-methylphenyl]-N-methyl-4-oxo-1,4-dihydro-1,8-naphthyridine-3-carboxamide] reads 178 °C.
